Measurements: patent publication US8048877B2, “Guanidine derivatives and their medical use” (Neurosearch A/S, priority 2006, dated 2011)
Structures can show the parent of a compound that is named as a salt.

Key:
hSK3 channels = target: T1, hSK3 channels (Homo sapiens, UniProt Q9UGI6); assay: whole-cell patch-clamp recording of SK3 current in HEK293 cells expressing hSK3 channels; format: cell-based; settings: current at −75 mV, free Ca2+ 0.3-0.4 μM, room temperature, read-out: Kd value (concentration required for decreasing the baseline current to 50% of the initial current)
T1 construct: expressed in transfected cells; host or cells: HEK293
Protocol: The ionic current through small-conductance Ca^2+-activated K^+ channels (SK channels, subtype 3) was recorded using the whole-cell configuration of the patch-clamp technique.
HEK293 tissue culture cells expressing hSK3 channels were grown in DMEM (Dulbecco's Modified Eagle Medium) supplemented with 10% FCS (foetal calf serum) at 37° C. in 5% CO2. At 60-80% confluency, cells were harvested by trypsin treatment and seeded on cover slips.
Cells plated on coverslips were placed in a 15 μl perfusion chamber (flowrate ˜1 ml/min) mounted on an inverted microscope placed on a vibration-free table in a grounded Faraday cage. The experiments were performed at room temperature (20-22° C.). […] Data were stored directly on the hard-disk and analysed by IGOR software (Wavemetrics, Lake Oswega, Oreg., USA).
The whole-cell configuration of the patch-clamp technique was applied. […] Cell capacitance was electronically compensated and the resistance between the pipette and the cell interior (the series resistance, Rs) was measured and compensated for. […]
The intracellular (pipette) solution contained: 154 mM KCl, 10 mM HEPES, 10 mM EGTA. Concentrations of CaCl2 and MgCl2 needed to obtain the desired free concentrations of Ca^2+ (0.3-0.4 μM, Mg^2+ always 1 mM) were calculated by EqCal software (Cambridge, UK) and added. […]

Structure (SMILES) | melting point [°C] | Kd (hSK3 channels) [nM]
N=C1N(Cc2cc(F)c(F)cc2Br)Cc2ccccc2N1Cc1cc(F)c(F)cc1Br (as salt: salt) [Compound 9, 1,3-Bis-(2-bromo-4,5-difluorobenzyl)-3,4-dihydro-1H-quinazolin-2-ylideneamine] | 220 to 224 | 
N=C1N(Cc2ccc(F)c(F)c2)[C@@H]2CCCC[C@H]2N1Cc1ccc(F)c(F)c1 (racemic) (as salt: salt) [Compound 5, (±)-trans-1,3-Bis-(3,4-difluoro-benzyl)octahydro-benzoimidazol-2-ylideneamine] | 238 to 240 | 
N=C1N(Cc2ccc(F)c(F)c2)CCCN1Cc1ccc(F)c(F)c1 [Compound 7, 1,3-Bis-(3,4-difluorobenzyl)tetrahydropyrimidin-2-ylideneamine] |  | < 1000

The remaining lines, values ahead:

melting point [°C] | Kd (hSK3 channels) [nM] | Structure (SMILES)
215 to 218 |  | N=C1N(Cc2ccc(F)c(F)c2)Cc2ccccc2N1Cc1ccc(F)c(F)c1 (as salt: salt) [Compound 4, 1,3-Bis-(3,4-difluorobenzyl)-3,4-dihydro-1H-quinazolin-2-ylideneamine]
 | < 1000 | COc1ccc(OC(F)(F)F)cc1CN1CCN(Cc2cc(OC(F)(F)F)ccc2OC)C1=N [Compound 15, 1,3-Bis-(2-methoxy-5-trifluoromethoxybenzyl)imidazolidin-2-ylideneamine]
